Results taken from patent US10544095B2 (Pfizer Inc., priority 2015, dated 2020).
pIC50: −log10 of the molar value.

target: hTDO2 in human glioblastoma A172 cells (Homo sapiens (Human), UniProt P48775); test: Cellular assay for TDO2 activity determination in A172 cells; assay type: cell-based; conditions: overnight incubation, kynurenine absorbance at 480 nm
Method in brief: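 Glioblastoma A172 cells with endogenous hTDO2, 1.25×10^4 cells/well, incubated overnight at 37° C. with ten serial compound concentrations in IMDM with 2% FBS. Supernatant kynurenine, after TCA precipitation and 4-(dimethylamino)-benzaldehyde reaction, read at 480 nm against kynurenine standard curve; data curve-fitted.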

Chain of hTDO2 in human glioblastoma A172 cells (P48775 whole entry): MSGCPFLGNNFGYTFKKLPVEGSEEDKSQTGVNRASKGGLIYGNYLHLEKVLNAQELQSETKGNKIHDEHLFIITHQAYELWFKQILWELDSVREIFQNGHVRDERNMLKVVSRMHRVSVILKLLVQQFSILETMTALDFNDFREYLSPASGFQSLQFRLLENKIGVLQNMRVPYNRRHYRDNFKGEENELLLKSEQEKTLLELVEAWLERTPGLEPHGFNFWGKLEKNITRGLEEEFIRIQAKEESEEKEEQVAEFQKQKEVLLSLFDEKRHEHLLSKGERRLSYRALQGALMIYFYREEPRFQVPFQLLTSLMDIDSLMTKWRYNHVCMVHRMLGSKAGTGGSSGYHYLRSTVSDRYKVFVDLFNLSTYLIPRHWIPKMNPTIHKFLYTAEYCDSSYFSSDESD

Structure (SMILES) | pIC50
CS(=O)(=O)c1ccc(-c2c[nH]c3cc(F)ccc23)cc1 [Example 1, 6-Fluoro-3-(4-methanesulfonyl-phenyl)-1H-indole] | 7.08
NCCNC(=O)c1ccc(-c2c[nH]c3cc(F)ccc23)cc1 [Example 2, N-(2-aminoethyl)-4-(6-fluoro-1H-indol-3-yl)benzamide] | 6.82
O=C(c1ccc(-c2c[nH]c3cc(F)ccc23)cc1)N1CCNCC1 [Example 3, (4-(6-fluoro-1H-indol-3-yl)phenyl)(piperazin-1-yl)methanone] | 6.96
O=S(=O)(c1ccc(-c2c[nH]c3cc(F)ccc23)cc1)N1CCNCC1 [Example 4, 6-fluoro-3-(4-(piperazin-1-ylsulfonyl)phenyl)-1H-indole] | 6.89
O=S(=O)(c1ccc(-c2c[nH]c3cc(F)ccc23)cc1)N1CCOCC1 [Example 5, 4-((4-(6-fluoro-1H-indol-3-yl)phenyl)sulfonyl)morpholine] | 6.60
NS(=O)(=O)c1ccc(-c2c[nH]c3cc(F)ccc23)cc1 [Example 6, 4-(6-fluoro-1H-indol-3-yl)benzenesulfonamide] | 7.09
O=S(=O)(c1cccc(-c2c[nH]c3cc(F)ccc23)c1)N1CCNCC1 [Example 7, 6-fluoro-3-(3-(piperazin-1-ylsulfonyl)phenyl)-1H-indole] | 6.47
O=C1CN(S(=O)(=O)c2ccc(-c3c[nH]c4cc(F)ccc34)cc2)CCN1C[C@H](O)CO [Example 147, (S)-1-(2,3-dihydroxypropyl)-4-((4-(6-fluoro-1H-indol-3-yl)phenyl)sulfonyl)piperazin-2-one] | 6.36
NCCN1CCN(S(=O)(=O)c2ccc(-c3c[nH]c4cc(F)ccc34)cc2)CC1=O [Example 148, 1-(2-aminoethyl)-4-((4-(6-fluoro-1H-indol-3-yl)phenyl)sulfonyl)piperazin-2-one] | 6.24
CN(C)CCN1CCN(S(=O)(=O)c2ccc(-c3c[nH]c4cc(F)ccc34)cc2)CC1=O [Example 149, 1-(2-(dimethylamino)ethyl)-4-((4-(6-fluoro-1H-indol-3-yl)phenyl)sulfonyl)piperazin-2-one] | 6.35
CNCCN1CCN(S(=O)(=O)c2ccc(-c3c[nH]c4cc(F)ccc34)cc2)CC1=O [Example 150, 4-((4-(6-fluoro-1H-indol-3-yl)phenyl)sulfonyl)-1-(2-(methylamino)ethyl) piperazin-2-one] | 6.44
O=C1CN(S(=O)(=O)c2ccc(-c3c[nH]c4cc(F)ccc34)cc2)CCN1CCO [Example 151, 4-((4-(6-fluoro-1H-indol-3-yl)phenyl)sulfonyl)-1-(2-hydroxyethyl)piperazin-2-one] | 6.36
NCCCN1CCN(S(=O)(=O)c2ccc(-c3c[nH]c4cc(F)ccc34)cc2)CC1=O [Example 152, 1-(3-aminopropyl)-4-((4-(6-fluoro-1H-indol-3-yl)phenyl-)sulfonyl)piperazin-2-one] | 5.88
CNCCCN1CCN(S(=O)(=O)c2ccc(-c3c[nH]c4cc(F)ccc34)cc2)CC1=O [Example 153, 4-((4-(6-fluoro-1H-indol-3-yl)phenyl)sulfonyl)-1-(3-(methylamino)propyl)piperazin-2-one] | 5.98
CN(C)CCCN1CCN(S(=O)(=O)c2ccc(-c3c[nH]c4cc(F)ccc34)cc2)CC1=O [Example 154, 1-(3-(dimethylamino)propyl)-4-((4-(6-fluoro-1H-indol-3-yl)phenyl)sulfonyl) piperazine-2-one] | 6.44
Cc1noc(CNS(=O)(=O)c2ccc(-c3c[nH]c4cc(F)ccc34)cc2)n1 [Example 155, 4-(6-fluoro-1H-indol-3-yl)-N-((3-methyl-1,2,4-oxadiazol-5-yl)methyl) benzenesulfonamide] | 6.73
O=S(=O)(NCc1ncon1)c1ccc(-c2c[nH]c3cc(F)ccc23)cc1 [Example 156, N-((1,2,4-oxadiazol-3-yl)methyl)-4-(6-fluoro-1H-indol-3-yl)benzenesulfonamide] | 6.82
O=S(=O)(NCCO)c1ccc(-c2c[nH]c3cc(F)ccc23)cc1 [Example 157, 4-(6-fluoro-1H-indol-3-yl)-N-(2-hydroxyethyl)-benzenesulfonamide] | 7.18

Structure (SMILES) | pIC50
O=S(=O)(NCCO)c1ccc(-c2c[nH]c3cc(F)ccc23)c(Cl)c1 [Example 158, 3-chloro-4-(6-fluoro-1H-indol-3-yl)-N-(2-hydroxyethyl) benzenesulfonamide] | 6.55
Cc1nc(CCNS(=O)(=O)c2ccc(-c3c[nH]c4cc(F)ccc34)cc2)c[nH]1 [Example 161, 4-(6-fluoro-1H-indol-3-yl)-N-(2-(2-methyl-1H-imidazol-4-yl)ethyl)benzenesulfonamide] | 6.66
CCc1cc(-c2c[nH]c3cc(F)ccc23)ccc1S(=O)(=O)NCCC(N)=O [Example 162, 3-(2-ethyl-4-(6-fluoro-1H-indol-3-yl)phenylsulfonamido)-propanamide] | 6.39
CC(C)c1cc(-c2c[nH]c3cc(F)ccc23)ccc1S(=O)(=O)NCCC(N)=O [Example 163, 3-((4-(6-fluoro-1H-indol-3-yl)-2-isopropylphenyl)-sulfonamido) propanamide] | 5.65
CC(C)Cc1cc(-c2c[nH]c3cc(F)ccc23)ccc1S(=O)(=O)NCCC(N)=O [Example 164, 3-((4-(6-fluoro-1H-indol-3-yl)-2-isobutylphenyl)-sulfonamido)propanamide] | 5.23
COCc1cc(-c2c[nH]c3cc(F)ccc23)ccc1S(=O)(=O)NCCC(N)=O [Example 165, 3-((4-(6-fluoro-1H-indol-3-yl)-2-(methoxymethyl)phenyl)-sulfonamido) propanamide] | 6.47
CC(C)Oc1cc(-c2c[nH]c3cc(F)ccc23)ccc1S(=O)(=O)NCCC(N)=O [Example 166, 3-((4-(6-fluoro-1H-indol-3-yl)-2-isopropoxyphenyl)-sulfonamido)propanamide] | 5.39
NC(=O)CCNS(=O)(=O)c1ccc(-c2c[nH]c3cc(F)ccc23)cc1CO [Example 167, 3-((4-(6-fluoro-1H-indol-3-yl)-2-(hydroxymethyl)-phenyl)sulfonamido)propanamide] | 7.39
NC(=O)CCNS(=O)(=O)c1ccc(-c2c[nH]c3cc(F)ccc23)cc1C(F)(F)F [Example 168, 3-((4-(6-fluoro-1H-indol-3-yl)-2-(trifluoromethyl)phenyl)-sulfonamido)propanamide] | 6.57
O=C(CCNS(=O)(=O)c1ccc(-c2c[nH]c3cc(F)ccc23)cc1)N1C[C@@H](O)[C@@H](O)C1 [Example 169, N-(3-((cis)-3,4-dihydroxypyrrolidin-1-yl)-3-oxopropyl)-4-(6-fluoro-1H-indol-3-yl)benzenesulfonamide] | 6.29
O=C(CCNS(=O)(=O)c1ccc(-c2c[nH]c3cc(F)ccc23)cc1)N1C[C@@H](O)[C@H](O)C1 [Example 170, (+)-N-(3-((3R,4R)-3,4-dihydroxypyrrolidin-1-yl)-3-oxopropyl)-4-(6-fluoro-1H-indol-3-yl) benzenesulfonamide] | 5.92
O=C(CCNS(=O)(=O)c1ccc(-c2c[nH]c3cc(F)ccc23)cc1)N1C[C@H](O)[C@@H](O)C1 [Example 171, (−)-N-(3-((3S,4S)-3,4-dihydroxypyrrolidin-1-yl)-3-oxopropyl)-4-(6-fluoro-1H-indol-3-yl)benzenesulfonamide] | 5.76
N[C@@H]1CN(C(=O)CCNS(=O)(=O)c2ccc(-c3c[nH]c4cc(F)ccc34)cc2)C[C@H]1F [Example 174, (+)-N-(3-((3R,4R)-3-amino-4-fluoropyrrolidin-1-yl)-3-oxopropyl)-4-(6-fluoro-1H-indol-3-yl)benzenesulfonamide] | 6.42
NC(=O)CCNS(=O)(=O)c1ccc(-c2c[nH]c3cc(F)ccc23)cc1CC(F)F [Example 175, 3-((2-(2,2-difluoroethyl)-4-(6-fluoro-1H-indol-3-yl)-phenyl)sulfonamido)propanamide] | 6.35
NS(=O)(=O)c1ccc(-c2c[nH]c3cc(F)ccc23)cc1CO [Example 176, 4-(6-fluoro-1H-indol-3-yl)-2-(hydroxymethyl)benzenesulfonamide] | 7.26
NCc1cc(-c2c[nH]c3cc(F)ccc23)ccc1S(N)(=O)=O [Example 177, 2-(aminomethyl)-4-(6-fluoro-1H-indol-3-yl)benzenesulfonamide] | 6.15
CS(=O)(=O)c1ccc(-c2c[nH]c3cc(F)ccc23)cc1CN [Example 178, (5-(6-fluoro-1H-indol-3-yl)-2-(methylsulfonyl)phenyl)methanamine] | 6.39
CS(=O)(=O)c1ccc(-c2c[nH]c3cc(F)ccc23)cc1CCO [Example 179, 2-(5-(6-fluoro-1H-indol-3-yl)-2-(methylsulfonyl)phenyl)ethanol] | 7.10

target: human recombinant TDO2 enzyme (Homo sapiens (Human), UniProt P48775); test: Assay for TDO2 enzymatic activity determination; assay type: biochemical; conditions: human recombinant TDO2, L-Trp 1 mM, kynurenine absorbance at 480 nm
Procedure: The compounds of formula I, its subformulae, and enantiomers, salts and solvates thereof, are useful to inhibit the enzymatic activity of human TDO2. To measure the TDO2 activity, the procedure described in Dolusic et al. J. Med. Chem.; 2011, 54, […] was adapted: the reaction mixture contained (final concentrations) potassium phosphate buffer (50 mM, pH 7.5), ascorbic acid ([…]), methylene blue (0.125 μM), catalase (40 units/mL, from bovine liver, Sigma), and human recombinant TDO2 enzyme (prepared as described in Dolusic et al. J. Med. Chem.; 2011, 54, 5320-5334; 0.9 μg) without or with the compounds of the present invention at the indicated concentrations (total volume 112.5 μL). The reaction was initiated by the addition of 37.5 μL of L-Trp (final concentration 1 mM) at room temperature. The reaction was conducted at room temperature during one hour and stopped by the addition of 30 μL of 30% (w/v) trichloroacetic acid. To convert N-formylkynurenine into kynurenine, the reaction mixture was incubated at 65° C. for 30 min. […] Kynurenine concentrations were determined by measuring the absorbance at 480 nm. A standard curve was made with pure kynurenine. The TDO activity was measured as described above using ten serial concentrations of the compounds of the present invention. Data were fitted using the Prism™ software (GraphPad Software, Inc.) using standard parameters.

Chain of human recombinant TDO2 enzyme (P48775 whole entry): as above

Structure (SMILES) | pIC50
CS(=O)(=O)c1ccc(-c2c[nH]c3cc(F)ccc23)cc1 [Example 1, 6-Fluoro-3-(4-methanesulfonyl-phenyl)-1H-indole] | 5.82
NCCNC(=O)c1ccc(-c2c[nH]c3cc(F)ccc23)cc1 [Example 2, N-(2-aminoethyl)-4-(6-fluoro-1H-indol-3-yl)benzamide] | 5.96
O=C(c1ccc(-c2c[nH]c3cc(F)ccc23)cc1)N1CCNCC1 [Example 3, (4-(6-fluoro-1H-indol-3-yl)phenyl)(piperazin-1-yl)methanone] | 5.68
O=S(=O)(c1ccc(-c2c[nH]c3cc(F)ccc23)cc1)N1CCNCC1 [Example 4, 6-fluoro-3-(4-(piperazin-1-ylsulfonyl)phenyl)-1H-indole] | 5.68
O=S(=O)(c1ccc(-c2c[nH]c3cc(F)ccc23)cc1)N1CCOCC1 [Example 5, 4-((4-(6-fluoro-1H-indol-3-yl)phenyl)sulfonyl)morpholine] | 5.33
NS(=O)(=O)c1ccc(-c2c[nH]c3cc(F)ccc23)cc1 [Example 6, 4-(6-fluoro-1H-indol-3-yl)benzenesulfonamide] | 6.00
O=S(=O)(c1cccc(-c2c[nH]c3cc(F)ccc23)c1)N1CCNCC1 [Example 7, 6-fluoro-3-(3-(piperazin-1-ylsulfonyl)phenyl)-1H-indole] | 5.36
